Experimental data reported in BigSolDB 2.1.

Nc1ncnc2c1ncn2[C@@H]1O[C@H](CO)[C@@H](O)[C@H]1O
solubility (mole fraction)
Conditions | 278.15 K | 283.15 K | 288.15 K | 293.15 K | 298.15 K | 303.15 K | 308.15 K | 313.15 K | 318.15 K | 323.15 K
in DMF | 0.00414 | 0.00502 | 0.00594 | 0.00687 | 0.00784 | 0.00906 | 0.00993 | 0.0108 | 0.012 | 0.0127
in DMSO | – | – | – | 0.00262 | 0.00299 | 0.00348 | 0.00394 | 0.00442 | 0.00488 | 0.00537
in NMP | 0.0321 | 0.035 | 0.0376 | 0.0407 | 0.0437 | 0.0467 | 0.0496 | 0.0522 | 0.0554 | 0.0582
in propylene glycol | 0.00352 | 0.00375 | 0.004 | 0.00431 | 0.00464 | 0.00497 | 0.00537 | 0.0058 | 0.00623 | 0.00665
in water | 0.00019 | 0.000237 | 0.00029 | 0.000353 | 0.000426 | 0.000516 | 0.000611 | 0.000731 | 0.000876 | 0.00105
